Values of other authors as cited in article PMC8597081, “Diphenylalanine Motif Drives Self‐Assembling in Hybrid PNA‐Peptide Conjugates” (Chemistry (Weinheim an Der Bergstrasse, Germany), 2021).

Conditions: N3-protonated cytosine; N7-protonated guanine
Procedure: Nevertheless, as it can be seen in the 1D spectra (Figure S12) even at 46.9 mM concentration, the absence of a signal at low field arising from the imino proton let speculate that guanine and cytosine are not paired.

pKa | Structure (SMILES)
4.2 | Nc1cc[nH]c(=O)n1 [cytosine]
1.9–2.2 | Nc1nc2nc[nH]c2c(=O)[nH]1 [guanine]
